From patent EP4613259A1, “PHARMACEUTICAL, DERMATOLOGICAL OR COSMETIC COMPOUNDS AND COMPOSITIONS FOR REDUCING MELANIN SYNTHESIS, STIMULATING TYPE I COLLAGEN PRODUCTION, SKIN DEPIGMENTATION AND/OR PROMOTING A SKIN ANTI-AGING EFFECT IN AN INDIVIDUAL OR ANIMAL, USES AND METHODS” (Chemyunion Ltda, priority 2022, dated 2024)
Where a SMILES comes first, the peptide text is derived from it. The star is where a group is joined. Palmitoyl = CCCCCCCCCCCCCCCC(=O)*

Assays:
[1] = test system: type I collagen; experiment: Stimulation of type I collagen synthesis in ex vivo human skin fragments (immunofluorescence, semi-quantification); format: cell-based; conditions: skin explants (n=5)
Procedure: Example 2: Evaluation of collagen synthesis stimulation in human skin fragments.
Skin explants (n=5) obtained from a surgical procedure performed by the ophthalmologic plastic surgery clinic were treated for 72 h with a formulation containing the peptide SEQ ID No. 1 ( Pal - Gln - His- Trp - Val-OH ) (at 50 ppm or 100 ppm ) and with the same formulation without the addition of the peptide (placebo). After incubation with the test products as described above, the skin fragments were fixed in 4% paraformaldehyde (pH 7.4) for 24 h. After fixation, the material was transferred to a 30% sucrose solution for cryopreservation and then embedded in tissue freezing medium, followed by serial sections of approximately 10 µm thickness made by cryostat and collected directly on silanized glass slides. The skin sections were then subjected to the specific labeling process for type I collagen for subsequent immunofluorescence analysis; the records were obtained using a fluorescence optical microscope coupled to a photographic camera.

[2] = test system: melanin synthesis in human skin fragments; experiment: Inhibition of melanin synthesis in ex vivo human skin fragments (Fontana Masson staining, semi-quantification); format: cell-based; conditions: skin explants (n=5), 72h
Procedure: Example 1: Evaluation of inhibition of melanin synthesis in human skin fragments.
Skin explants (n=5), obtained from a surgical procedure performed by an ophthalmological plastic surgery clinic, were treated for 72h with a formulation containing the peptide SEQ ID No. 1 (Pal-Gln-His-Trp-Val-OH), (at 50 ppm or 100 ppm) and with the same formulation without the addition of the peptide (placebo).
After incubation with the test products as described above, the skin fragments were fixed in 4% paraformaldehyde (pH 7.4) for 24 hours. After fixation, the material was transferred to 30% sucrose solution for cryopreservation and then embedded in tissue freezing medium, followed by serial sections of approximately 10 µm thickness made by cryostat and collected directly on silanized glass slides. Then, the skin sections were stained by the Fontana Masson technique.
Subsequently, the slides were analyzed and recorded using an optical microscope coupled to a camera.

CCCCCCCCCCCCCCCC(=O)N[C@@H](CCC(N)=O)C(=O)N[C@@H](Cc1cnc[nH]1)C(=O)N[C@@H](Cc1c[nH]c2ccccc12)C(=O)N[C@H](C(=O)O)C(C)C [SEQ ID No. 1, Pal-Gln-His-Trp-Val-OH] (Palmitoyl-QHWV-OH)
stimulated collagen I production compared to the placebo group ([1]; 50 ppm peptide in formulation, 72h): 63% | increase in protein synthesis compared to the levels observed in the placebo group ([1]; 100 ppm peptide in formulation, 72 h, protein = type I collagen): 71% | reduces melanin production compared to the placebo group ([2]; 50 ppm peptide in formulation): 66% | inhibits pigment synthesis compared to the levels observed in the placebo group ([2]; 100 ppm peptide in formulation): 61%
